According to ChEMBL document CHEMBL1151426, “Pharmacodynamics of doxycycline in a murine malaria model” (Antimicrob Agents Chemother, 2007):
Calls of active or inactive are those of the source. The rule behind the calls is not given here.

Key:
Plasmodium berghei [1] = assay: Antimalarial activity as reduced parasitaemia against Plasmodium berghei ANKA infected Swiss mice (Mus musculus) at 90 mg/kg intraperitoneal dose at 65, 76 and 88 hrs post infection; type: functional, organism-based; parameters: dose 90 mg/kg
Plasmodium berghei [2] = assay: Antimalarial activity as parasitaemia against Plasmodium berghei ANKA infected Swiss mice (Mus musculus) at 90 mg/kg intraperitoneal dose 65, 76 and 88 hrs post infection (Rvb=2.5%+/-0.5%); type: functional
Mus musculus [3] = assay: Toxicity in Plasmodium berghei ANKA infected Swiss mice (Mus musculus) assessed as discomfort at 180 mg/kg, intraperitoneally administered as single dose 64 hrs after infection; type: organism-based; parameters: dose 180 mg/kg, route intraperitoneal; conditions: in vivo, ip
Mus musculus [4] = assay: Toxicity in Plasmodium berghei ANKA infected Swiss mice (Mus musculus) assessed as adverse effect at 90 mg/kg, intraperitoneally administered at 1,12 and 24 hrs after 64 hrs postinfection; type: organism-based; parameters: dose 90 mg/kg, route intraperitoneal; conditions: in vivo, ip
[5] = Half life in Plasmodium falciparum infected human dosed every 24 hrs after 48 hrs of infection; type: ADME, organism-based; conditions: in vivo
Plasmodium berghei [6] = assay: Antimalarial activity as parasitaemia nadir against Plasmodium berghei ANKA infected Swiss mice (Mus musculus) at 90 mg/kg intraperitoneal dose 65, 76 and 88 hrs post infection; type: functional
[7] = Half life in Plasmodium falciparum infected human at 200 mg/day, perorally after 7 days; type: ADME, organism-based; conditions: in vivo, po
Plasmodium berghei [8] = assay: Antimalarial activity as reduced parasitaemia against Plasmodium berghei ANKA infected Swiss mice (Mus musculus) up to 180 mg/kg intraperitoneal single dose 64 hrs post infection; type: functional, organism-based; parameters: dose 180 mg/kg
Mus musculus [9] = assay: Toxicity in Plasmodium berghei ANKA infected Swiss mice (Mus musculus) assessed as median time for adverse effect at 90 mg/kg, intraperitoneally administered at 1,12 and 24 hrs after 64 hrs postinfection; type: organism-based; parameters: dose 90 mg/kg, route intraperitoneal; conditions: in vivo, ip
[10] = Half life in healthy mouse at 50 mg/kg; type: ADME, organism-based; parameters: dose 50 mg/kg; conditions: in vivo
Mus musculus [11] = assay: Toxicity in Plasmodium berghei ANKA infected Swiss mice (Mus musculus) assessed as median time for adverse effect at 30 mg/kg, intraperitoneally administered as single dose 64 hrs after infection measured after 24 hrs; type: organism-based; parameters: dose 30 mg/kg, route intraperitoneal; conditions: in vivo, ip
Plasmodium berghei [12] = assay: Antimalarial activity as reduced parasitaemia after 24hrs against Plasmodium berghei ANKA infected Swiss mice (Mus musculus) at 30 mg/kg intraperitoneal single dose 64 hrs post infection; type: functional, organism-based; parameters: dose 30 mg/kg
Plasmodium berghei [13] = assay: Antimalarial activity as parasitaemia against Plasmodium berghei ANKA infected Swiss mice (Mus musculus) at 30 mg/kg intraperitoneal single dose 64 hrs post infection (Rvb=2.5%+/-0.5%); type: functional
Plasmodium berghei [14] = assay: Antimalarial activity as parasitaemia nadir after 24 hrs against Plasmodium berghei ANKA infected Swiss mice (Mus musculus) at 30 mg/kg intraperitoneal single dose 64 hrs post infection; type: functional

Row | Compound | Activity (Plasmodium berghei [1]) | Activity (Plasmodium berghei [2]) [%] | Activity (Mus musculus [3]) | Activity (Mus musculus [4]) | half-life [5] [h] | Activity (Plasmodium berghei [6]) [%] | half-life [7] [h] | Activity (Plasmodium berghei [8]) | Time (Mus musculus [9]) [days] | half-life [10] [h] | Activity (Mus musculus [11]) [days] | Activity (Plasmodium berghei [12]) | Activity (Plasmodium berghei [13]) [%] | Activity (Plasmodium berghei [14]) [%]
1 | C[C@H]1c2cccc(O)c2C(=O)C2=C(O)[C@]3(O)C(=O)C(C(N)=O)=C(O)[C@@H](N(C)C)[C@@H]3[C@@H](O)[C@@H]21.O [DOXYCYCLINE] | Active | 3 | Toxic | Non-toxic | 10.5 | 0.06 | 14 | inactive | 6 | 2.8 |  |  |  | 
2 | C[C@H]1[C@@H](O)O[C@@H]2O[C@@]3(C)CC[C@H]4[C@H](C)CC[C@@H]1[C@@]24OO3 [ARTENIMOL] |  |  |  |  |  |  |  |  |  |  | 1 | Active | 2.6 | 0.53
